Assay results published in patent publication US4501734A, “Promotion of absorption of drugs administered through the alimentary system” (priority 1981, dated 1985).

How the values were obtained:
duodenum mucosa = test: Observation of the duodenum employed in the experiment for mucosa damage; type: in vivo; settings: rat duodenum employed in the experiment
Protocol: (§1) Experimental method A was repeated except that saponins A, B and C were respectively used in a concentration of 5 mg/liter in place of the galenical extract in a solution to be administered.
Examples according to the above experimental method are shown in the following Examples 6, 7 and 8. […] This may be ascribed to low acute toxicity of the drug absorption promoter of the present invention, as can readily be understood from the fact that the galenicals used in the present invention have been widely accepted as herb medicines or the like.

[1] = Ampicillin blood level after injection with galenical extract or isolated saponin into rat duodenal loop (Experimental method A); settings: in vivo
Protocol: Rats weighing 180 to 220 g were anesthetized with 30 mg/kg of pentobarbital sodium and fixed by supination on a water bed made of a metal through which water regulated at a constant temperature of 39° C. was circulated. A duodenal loop of 10 cm length was prepared in a conventional manner with the point 1 cm under the pyloric part of the stomach as the starting point. […] The rats were bled from jugular veins 10, 20, 40, 60, 90, 120, 180 and 240 minutes after injection and activity concentration in the blood in each case was measured according to biological assay.
That is, according to The Japan Antibiotic Drug Standards, using Bacillus subtilis as test microorganism, cultivation assay was performed by the paper disc method at 37° C. for 15 to 20 hours.
The composition of the solution had the following composition:
Galenical extract: 2 mg/ml-20 mg/ml
as §1

[2] = Ampicillin blood level after administration with galenical extract by stomach probe (Experimental method B); type: in vivo; settings: rat
Protocol: Rats weighing 200 to 230 g under anesthesia with ether were intubated with polyethylene tube (PE-10) at the femoral artery with ligation. The other end of PE-10 was passed subcutaneously to be led to the cervicodorsal part, at which it was drawn out of the skin and fixed with capping. After restoration of the vulnus at the operated portion (about 24 hours), each rat was provided for the experiment.
The test microorganism used was Bacillus subtilis, and the assay was performed by the paper disc method according to The Japan Antibiotic Drug Standards.

[3] = Ampicillin blood level after suppository with saponin A, B or C (suppository tests); type: in vivo; settings: rat
Protocol: The effectiveness of the saponins A, B and C when they were formulated into suppositories was tested in a method similar to the above Experimental method A.
Thus, rats weighing 180 to 220 g were anesthetized with 30 mg/kg of pentobarbital sodium and fixed by supination on a water bed made of a metal through which water regulated at a constant temperature of 39° C. was circulated. A suppository in a proportion of 1 g/kg of body weight of the rat was inserted through the anus and pushed by a glass bar until it reached the connecting point of the pubes.
The suppositories tested had the following compositions:
Saponin A, B or C: 0.5-2 mg/kg-rat, and
Vehicle*: remainder for giving 1 mg of suppository/kg-rat.
*Witepsol® produced by Dynamit Novel A.G.
Thus, the assay was performed by the paper disc method according to The Japan Antibiotic Drug Standards using Bacillus subtilis as the test microorganism.

With C[C@@H]1O[C@@H](O[C@H]2[C@H](O[C@H]3CC[C@@]4(C)[C@@H](CC[C@]5(C)[C@@H]4CC=C4[C@@H]6CC(C)(C)CC[C@]6(C(=O)O)CC[C@]45C)[C@]3(C)CO)OC[C@H](O)[C@@H]2O)[C@H](O)[C@H](O[C@@H]2OC[C@H](O)[C@H](O)[C@H]2O)[C@H]1O [Saponin A, 3-O-[α-L-arabinopyranosyl-(1→3)-α-L-rhamnopyranosyl-(1→2) -α-L-arabinopyranosyl]-hederagenin] the “damage of mucosa or abnormality such as hemorrhagic spot of the duodenum” value (“damage of mucosa or abnormality such” below) (duodenum mucosa) was “no damage of mucosa (e.g. mucosa ablation) or abnormality such as hemorrhagic spot”.

In the case of C[C@@H]1O[C@@H](O[C@H]2[C@H](O[C@H]3CC[C@@]4(C)[C@@H](CC[C@]5(C)[C@@H]4CC=C4[C@@H]6CC(C)(C)CC[C@]6(C(=O)O)CC[C@]45C)[C@]3(C)CO)OC[C@H](O)[C@@H]2O)[C@H](O)[C@H](O[C@@H]2OC[C@@H](O)[C@H](O)[C@H]2O)[C@H]1O [Saponin B, 3-O-[β-D-xylopyranosyl-(1→3)-α-L-rhamnopyranosyl-(1→2)-α-L-arabinopyranosyl]-hederagenin], the “damage of mucosa or abnormality such” value (duodenum mucosa) is reported as “no damage of mucosa (e.g. mucosa ablation) or abnormality such as hemorrhagic spot”.

With C[C@@H]1O[C@@H](O[C@H]2[C@H](O[C@H]3CC[C@@]4(C)[C@@H](CC[C@]5(C)[C@@H]4CC=C4[C@@H]6CC(C)(C)CC[C@]6(C(=O)O)CC[C@]45C)[C@]3(C)CO)OC[C@H](O)[C@@H]2O)[C@H](O)[C@H](O[C@@H]2O[C@@H](CO)[C@H](O)[C@H]2O)[C@H]1O [Saponin C, 3-O-[α-L-arabinofuranosyl-(1→3)-α-L-rhamnopyranosyl-(1→2)-α-L-arabinopyranosyl]-hederagenin] the “damage of mucosa or abnormality such” value (duodenum mucosa) was “no damage of mucosa (e.g. mucosa ablation) or abnormality such as hemorrhagic spot”.

In the case of CC1(C)S[C@@H]2[C@H](NC(=O)[C@H](N)c3ccccc3)C(=O)N2[C@H]1C(=O)O [ampicillin sodium], the “Concentration in Blood, 20 min. (Control)” value ([1]; 20 min) is reported as 0.89 ± 0.07 μg titer/ml, the “Concentration in Blood, 40 min. (Control)” value ([1]; 40 min) is reported as 1.1 μg titer/ml and the “Concentration in Blood, 240 min. (Control)” value ([1]; 4 h) is reported as 0.5 μg titer/ml. For the same compound, the concentration at 10 min ([1]; Concentration in Blood, 10 min. (Control)) was 600 ng/mL, the concentration at 40 min ([1]; Concentration in Blood, 40 min. (Control)) was 1100 ng/mL and the concentration at 1 h ([1]; Concentration in Blood, 60 min. (Control)) was 1200 ng/mL. The concentration at 3 h ([1]; Concentration in Blood, 180 min. (Control)) was 500 ng/mL, the concentration at 4 h ([1]; Concentration in Blood, 240 min. (Control)) was 500 ng/mL and the “Concentration in Blood, 10 min. (- Control)” value ([2]; in vivo, po, 25 mg/kg, 10 min) was 0.3 μg titer/ml. For the same compound, the “Concentration in Blood, 20 min. (- Control)” value ([2]; in vivo, po, 25 mg/kg, 20 min) was 0.6 μg titer/ml, the “Concentration in Blood, 40 min. (- Control)” value ([2]; in vivo, po, 25 mg/kg, 40 min) was 1.3 μg titer/ml and the “Concentration in Blood, 60 min. (- Control)” value ([2]; in vivo, po, 25 mg/kg, 1 h) was 0.5 μg titer/ml. The concentration at 10 min ([2]; in vivo, po, 25 mg/kg, Concentration in Blood, 10 min. (- Control)) was 400 ng/mL, the concentration at 20 min ([2]; in vivo, po, 25 mg/kg, Concentration in Blood, 20 min. (- Control)) was 800 ng/mL and the concentration at 40 min ([2]; in vivo, po, 25 mg/kg, Concentration in Blood, 40 min. (- Control)) was 1200 ng/mL. For the same compound, the concentration at 1 h ([2]; in vivo, po, 25 mg/kg, Concentration in Blood, 60 min. (- Control)) was 800 ng/mL, the concentration at […] ([2]; in vivo, po, 25 mg/kg, Concentration in Blood, 90 min. (- Control)) was 300 ng/mL and the “Concentration in Blood, 90 min. (- Control)” value ([2]; stomach probe, ampicillin sodium without extract (Control), 90 min, tr.: trace) was “tr”. The “Concentration in Blood, 120 min. (- Control)” value ([2]; stomach probe, ampicillin sodium without extract (Control), 120 min, tr.: trace) was “tr”, the “Concentration in Blood, 180 min. (- Control)” value ([2]; stomach probe, ampicillin sodium without extract (Control), 180 min, tr.: trace) was “tr” and the “Concentration in Blood, 240 min. (- Control)” value ([2]; stomach probe, ampicillin sodium without extract (Control), 240 min, tr.: trace) was “tr”. The concentration at 5 min ([3]; in vivo, 50 mg/kg) was 3120 ± 1660 ng/mL, the concentration at 10 min ([3]; in vivo, 50 mg/kg) was 3980 ± 1890 ng/mL and the concentration at 35 min ([3]; in vivo, 50 mg/kg) was 1910 ± 890 ng/mL. The concentration at 1 h ([3]; in vivo, 50 mg/kg) was 930 ± 540 ng/mL and the “Concentration in Blood, 100 min.” value ([3]; suppository, ampicillin sodium 50 mg/kg, 100 min (Table 8A, upper part)) was “trace”.
